Laboratory results published in publication PMC6273400, “Enhancement of Exposure and Reduction of Elimination for Paeoniflorin or Albiflorin via Co-Administration with Total Peony Glucosides and Hypoxic Pharmacokinetics Comparison” (Molecules, 2016).

Legend:
[1] = Pharmacokinetics in rat plasma after intragastric administration, normoxia (UPLC-MS/MS); type: in vivo, Sprague-Dawley rats; settings: mean ± SD; for clearance / Cmax / Tmax / half-life: n = 6; for Cmax / Tmax / half-life / AUC(0-t) / MRT last: male, Sprague-Dawley, rat, plasma, po; for AUC(0-t): n = 6, read-out: AUC(0→24 h) (converted); for MRT last: n = 6, read-out: MRT(0→24 h) (converted)
Description: (§1) Male Sprague-Dawley (SD) rats (250 g ± 20 g) were purchased from the Animal Center of Capital Medical University (ACCMU, Beijing, China). Animals were housed in individual cages with free access to food and water in a room with the illumination (a 12 h light and dark cycle), temperature and relative humidity controlled automatically. Within five days before experiments a jugular vein in each rat under anaesthesia was cannulated by insertion of an indwelling cannula for blood sampling. After fully recovery, the rats were housed with unlimited access to food and water except for fasting 12 h before the experiment with water available. The seven groups of PF/AF and TGP were intragastrically administered to the Sprague-Dawley rats, respectively. All the animal experiments were carried out in accordance with the Guide for the Care and Use of Laboratory Animals as adopted and promulgated by the National Health Ministry of China. The protocols of animal experiments had been approved by the Animal Center of Capital Medical University.
(§2) The UPLC-MS/MS system consisted of a UPLC system (Agilent Technologies, Palo Alto, CA, USA) including a G4220A 1290 binary pump, a G1379A vacuum degasser, a G4226 autosampler, a G1330B 1290 thermostat and triple quadrupole mass spectrometer equipped with an electrospray ionization (ESI) source (Series 6490, Agilent Technologies). The system was controlled with the Agilent Technologies Mass Hunter Workstation B.06.00 software for data acquisition and analysis. The analytes were separated on ZORBAX Eclipse plus C18 column (2.1 mm × 100 mm, 3.5 μm). The mobile phase consisted of 0.2% (v/v) formic acid in water (A) and methanol (B). The mobile phase conditions were 79:21 (A:B, v/v) and the flow rate was 0.4 mL/min. The column temperature was maintained at 30 °C. The sample injection volume was 5 μL. The detection was performed on the triple quadrupole mass spectrometer equipped with electrospray source (Series 6490, Agilent Technologies). High purity nitrogen served as both the nebulizing and sheath gas. The optimized parameters in the positive or negative were as follows: capillary voltage at 3 kV, nozzle voltage at 1.5 kV, gas temperature of 200 °C and sheath gas temperature of 250 °C. The quantification was performed by multiple reaction monitoring (MRM) via precursor-to-product ion pair. AF and IS were detected in positive ion mode while PF was detected in negative ion mode. The parameters were set as follows: m/z 525→449 for PF (fragmentor energy, 380 eV; collision energy, 10 eV; dwell time, 80 ms); m/z 481→105 for AF (fragmentor energy, 380 eV; collision energy, 28 eV; dwell time, 80 ms); m/z 417→297 for IS (fragmentor energy, 380 eV; collision energy, 25 eV; dwell time, 80 ms).
(§3) A 100 μL aliquot of plasma sample was added with 50 μL 1% (v/v) formic acid in water and 50 μL IS working solution (the IS, concentration of 100 ng/mL) and 300 μL acetonitrile. After vortexing for 2 min and centrifugation at 13,000× g for 10 min, the sample was transferred to another Axygen tube and evaporated to dryness in a rotary evaporator at 40 °C. The residue was reconstituted in 100 μL of water–methanol (79:21, v/v), then an aliquot of 5 μL was injected into the UPLC-MS/MS system for analysis.
(§4) The male Sprague-Dawley (SD) rats were randomly divided into seven groups (six rats in each group), which were housed with unlimited access to food and water, except for fasting 12 h before the experiment with water ad libitum. The hypoxic rats were exposed to a fractional concentration of 9.0% O2 after intragastric administration of drug for hypoxia pharmacokinetics experiments. The compound PF (80 mg/kg, normoxia and hypoxia), AF (14 mg/kg, normoxia and hypoxia), combination administration of PF (80 mg/kg) and AF (14 mg/kg), the two dosages of TPG (PF with 80 mg/kg, and AF with 14 mg/kg) were intragastrically administered to the rats, respectively. […]

[2] = Pharmacokinetics in rat plasma after intragastric administration, hypoxia (9.0% O2); type: in vivo, Sprague-Dawley rats; settings: mean ± SD; for clearance / Cmax / Tmax / half-life: n = 6; for Cmax / Tmax / half-life / AUC(0-t) / MRT last: male, Sprague-Dawley, po; for AUC(0-t): n = 6, read-out: AUC(0→24 h) (converted); for MRT last: n = 6, read-out: MRT(0→24 h) (converted)
Description: as §1, §2, §3, §4

[3] = Stability of the analytes in SD rat plasma (QC samples); type: in vitro ADME; settings: 24 h after pretreatment, three freeze (−80 °C)/thaw (room temperature) cycles, 30 days at −80 °C
Description: The stabilities of the analytes in the SD rat plasma were investigated using the QC sample solutions stored under different temperature conditions for different periods of time which likely to be encountered during sample storage and the analytical process. The QC samples were tested for post-treatment, three freeze-thaw cycles and long-term stabilities. The post-treatment was evaluated by placing the QC samples in the autosampler for 24 h. And for freeze-thaw cycle stability assessment, the QC samples were repeatedly freezed and thawed for three cycles at −80 °C to 20 °C. The long-term stability was carried out via placing the QC samples at −80 °C for at least 30 days.

[4] = 14 mg/kg, AF (14 mg/kg) combined with PF (80 mg/kg), intragastric
[5] = 14 mg/kg, AF alone, 14 mg/kg intragastric, normoxia
[6] = 14 mg/kg, AF in TPG (TPG dose with AF 14 mg/kg), intragastric
[7] = AF 14 mg/kg single intragastric
[8] = 80 mg/kg, PF (80 mg/kg) combined with AF (14 mg/kg), intragastric
[9] = 80 mg/kg, PF alone, 80 mg/kg intragastric, normoxia
[10] = 80 mg/kg, PF in TPG (TPG dose with PF 80 mg/kg), intragastric
[11] = PF 80 mg/kg single intragastric

For `CC12CC(O)C3CC1(OC1OC(CO)C(O)C(O)C1O)C3(COC(=O)c1ccccc1)C(=O)O2` (centres unmarked) [AF, albiflorin], the clearance ([1]; AF (14 mg/kg) combined with PF (80 mg/kg), intragastric) was 1800 ± 600 mL/min/kg, the clearance ([1]; AF alone, 14 mg/kg intragastric, normoxia) was 1700 ± 500 mL/min/kg and the clearance ([1]; AF in TPG (TPG dose with AF 14 mg/kg), intragastric) was 1200 ± 400 mL/min/kg. For the same compound, the Cmax [1, 4] was 42.4 ± 18.7 ng/mL, the Tmax [1, 4] was 0.695 h and the half-life [1, 4] was 2.17 ± 0.978 h. For the same compound, the AUC(0-t) [1, 4] was 129 ng·h/mL, the MRT last [1, 4] was 2.97 h and the Cmax [1, 5] was 70.3 ± 19.1 ng/mL. The Tmax [1, 5] was 0.445 h, the half-life [1, 5] was 1.99 ± 0.495 h and the AUC(0-t) [1, 5] was 142 ng·h/mL. For the same compound, the MRT last [1, 5] was 2.25 h, the Cmax [1, 6] was 56.9 ± 12.9 ng/mL and the Tmax [1, 6] was 0.528 h. For the same compound, the half-life [1, 6] was 3.59 ± 1.53 h, the AUC(0-t) [1, 6] was 196 ng·h/mL and the MRT last [1, 6] was 3.76 h. The clearance [2, 7] was 1600 ± 700 mL/min/kg, the Cmax [2, 7] was 49.1 ± 16.2 ng/mL and the Tmax [2, 7] was 0.583 h. For the same compound, the half-life [2, 7] was 2.19 ± 0.958 h, the AUC(0-t) [2, 7] was 138 ng·h/mL and the MRT last [2, 7] was 2.16 h. The “stability in rat plasma” value [3] was “stable”.

`C[C@@]12C[C@@]3(O)O[C@@H](O1)[C@]1(COC(=O)c4ccccc4)[C@H]3C[C@@]12O[C@@H]1O[C@H](CO)[C@@H](O)[C@H](O)[C@H]1O` [PF, paeoniflorin] showed a clearance ([1]; PF (80 mg/kg) combined with AF (14 mg/kg), intragastric) of 1600 ± 400 mL/min/kg, a clearance ([1]; PF alone, 80 mg/kg intragastric, normoxia) of 2300 ± 400 mL/min/kg and a clearance ([1]; PF in TPG (TPG dose with PF 80 mg/kg), intragastric) of 1700 ± 600 mL/min/kg. For the same compound, the Cmax [1, 8] was 320 ± 121 ng/mL, the Tmax [1, 8] was 0.695 h and the half-life [1, 8] was 1.63 ± 0.665 h. For the same compound, the AUC(0-t) [1, 8] was 865 ng·h/mL, the MRT last [1, 8] was 3.33 h and the Cmax [1, 9] was 333 ± 63.6 ng/mL. For the same compound, the Tmax [1, 9] was 0.583 h, the half-life [1, 9] was 1.81 ± 0.63 h and the AUC(0-t) [1, 9] was 595 ng·h/mL. For the same compound, the MRT last [1, 9] was 1.83 h, the Cmax [1, 10] was 291 ± 141 ng/mL and the Tmax [1, 10] was 0.388 h. It also gave a half-life [1, 10] of 3.91 ± 1.6 h, an AUC(0-t) [1, 10] of 902 ng·h/mL and an MRT last [1, 10] of 4.81 h. It also gave a clearance [2, 11] of 3050 ± 540 mL/min/kg, a Cmax [2, 11] of 177 ± 55.1 ng/mL and a Tmax [2, 11] of 0.847 h. It also gave a half-life [2, 11] of 1.86 ± 0.475 h, an AUC(0-t) [2, 11] of 443 ng·h/mL and an MRT last [2, 11] of 2.12 h. The “stability in rat plasma” value [3] was “stable”.
